Laboratory results taken from US12497376B2, “Compound [2-(dimethylamino)-2-phenylbutyl]-3,4,5-trimethoxybenzoate 4-methyl-2H-chromen-2-on-7-yl sulphate and use thereof” (LTD “VALENTA—INTELLEKT”, priority 2020, dated 2025).

Test system: male mice of the C57 BL/6 line
Test: von Frey filament test (mechanical allodynia) in the model of visceral pain induced by TNBS colitis
Type: in vivo
Details: for Mechanical allodynia intensity, g (mean ± standard error of the mean): oral once daily from day 3 after TNBS, von Frey test on Day 28, placebo 2.0 ± 0.5
Procedure: In the experiments, 13-week old male mice of the C57 BL/6 line were used. Sixty (60) animals were randomly distributed into four (4) groups of equal number (N=15) characterized by the dosage of the administered compound.
The study was conducted for three different doses of the compound of Formula I. A group of mice receiving only the carrier (starch solution) served as the control group (placebo group).
Colitis was induced by introducing 0.1 mL of TNBS (trinitrobenzene sulfonate) (130 μg/mL in 30% EtOH) into the large intestine through a polyethylene catheter introduced by 3 cm into the anus of mice anesthetized with isoflurane. Then, the mice were arranged individually, and changes in the body weight, appearance and behavior were observed daily. A histological study of the mucosa structure, cell infiltrate, intestinal crypt abscesses and goblet cells confirmed significant damage caused by the TNBS introduction on Day 3 and, in a significant degree, on Day 7 [6].
The preparations were introduced orally in three days after the TNBS introduction and then once daily for the whole study period.
To assess pain behavior, the von Frey test with filaments (appearance of mechanical allodynia) on Day 28 after the TNBS introduction.
The animals were put into an acrylic chamber (15×15×15 cm) raised above the ground with a wire mesh on the bottom. Before starting the tests, the animals were left in the chamber for 5-10 minutes for adaptation. Then, the abdominal cavity of the animal was stimulated with von Frey calibrated filaments (or fibers) (BIOSEB, USA). The filaments were a set of 10 standard plastic fibers of increasing diameters. The fiber rigidity, which is expressed as a minimal force required to flex a fiber, was increased in such calibration logarithmically, with absolute values from 0.6 g to 26 g. Sensitivity threshold of each mouse was determined in three repeats (6 touches in total with 10-second interval for each filament; the interval between successive touches with different filaments was 2 minutes). The abdominal surface was poked with a force required to flex the fiber, and the fiber was held in that position for 6-8 seconds. The positive response was recorded, if the animal sharply winced during touching. A sensitivity threshold was determined by a minimal pressure causing the wincing reflex reaction (4 times of 6 touches).
An average score received in a corresponding test and a standard error of the mean for each value were calculated for each study group (n=15).

Substance: [2-(dimethylamino)-2-phenylbutyl]-3,4,5-trimethoxybenzoate 4-methyl-2H-chromen-2-on-7-yl sulphate [Compound of Formula I]
- Mechanical allodynia intensity, g (mean ± standard error of the mean) (dose 10 mg/day (recalculated for a human), group 2, n=15): 10.0 ± 0.5 g
- Mechanical allodynia intensity, g (mean ± standard error of the mean) (dose 300 mg/day (recalculated for a human), group 3, n=15): 21.4 ± 0.9 g
- Mechanical allodynia intensity, g (mean ± standard error of the mean) (dose 1,800 mg/day (recalculated for a human), group 4, n=15): 23.1 ± 1.0 g
- Indices of mechanical allodynia versus placebo (groups receiving the compound (10, 300, 1,800 mg/day), p < 0.05 versus placebo): significantly lower
